{
  "source": "PubChem BioAssay AID1259409",
  "about": "(Chemical Carcinogenesis Research Information System (CCRIS), 2018)",
  "origin": "cited, not measured here",
  "test_system": "rodent chemically induced tumor inhibition, incidence and multiplicity",
  "experiment": "CCRIS tumor inhibitor studies",
  "settings": "Promoter: NONE USED",
  "data": [
    {"smiles": "CC1=C(/C=C/C(C)=C/C=C/C(C)=C/C=C/C=C(C)/C=C/C=C(C)/C=C/C2=C(C)C(=O)CCC2(C)C)C(C)(C)CCC1=O", "values": [
      {"measurement": "tumour outcome (control, treated, inhibition, significance)", "setting": "Carcinogen: 4-NITROQUINOLINE-1-OXIDE, 56-57-5, Dose [Inhibitor]: 0, 100 PPM IN DIET FOR 10 WK BEGINNING PRIOR TO CARCINOGEN TREATMENT (STUDY DURATION: 32 WK), Route [Inhibitor]: ORAL, Species: RAT, Strain/Sex: F344/MALE, Target Tissue: Type of Lesion: TONGUE: PAPILLOMA, Dose [Carcinogen]: 20 PPM IN DRINKING WATER FOR 8 WK", "value": "4/24 (17%), 0/17 (0%), 100%, p<0.05"},
      {"measurement": "tumour outcome (control, treated, inhibition, significance)", "setting": "Carcinogen: 4-NITROQUINOLINE-1-OXIDE, 56-57-5, Dose [Inhibitor]: 0, 100 PPM IN DIET FOR 10 WK BEGINNING PRIOR TO CARCINOGEN TREATMENT (STUDY DURATION: 32 WK), Route [Inhibitor]: ORAL, Species: RAT, Strain/Sex: F344/MALE, Target Tissue: Type of Lesion: TONGUE: SQUAMOUS CELL CARCINOMA, Dose [Carcinogen]: 20 PPM IN DRINKING WATER FOR 8 WK", "value": "13/24 (54%), 0/17 (0%), 100%, p<0.05"},
      {"measurement": "tumour outcome (control, treated, inhibition, significance)", "setting": "Carcinogen: 4-NITROQUINOLINE-1-OXIDE, 56-57-5, Dose [Inhibitor]: 0, 100 PPM IN DIET FOR 22 WK BEGINNING 1 WK POST CARCINOGEN TREATMENT (STUDY DURATION: 32 WK), Route [Inhibitor]: ORAL, Species: RAT, Strain/Sex: F344/MALE, Target Tissue: Type of Lesion: TONGUE: PAPILLOMA, Dose [Carcinogen]: 20 PPM IN DRINKING WATER FOR 8 WK", "value": "4/24 (17%), 1/19 (5%), 71%, p<0.05"},
      {"measurement": "tumour outcome (control, treated, inhibition, significance)", "setting": "Carcinogen: 4-NITROQUINOLINE-1-OXIDE, 56-57-5, Dose [Inhibitor]: 0, 100 PPM IN DIET FOR 22 WK BEGINNING 1 WK POST CARCINOGEN TREATMENT (STUDY DURATION: 32 WK), Route [Inhibitor]: ORAL, Species: RAT, Strain/Sex: F344/MALE, Target Tissue: Type of Lesion: TONGUE: SQUAMOUS CELL CARCINOMA, Dose [Carcinogen]: 20 PPM IN DRINKING WATER FOR 8 WK", "value": "13/24 (54%), 1/19 (5%), 91%, p<0.05"},
      {"measurement": "tumour outcome (control, treated, inhibition, significance)", "setting": "Carcinogen: 7,12-DIMETHYLBENZ[A]ANTHRACENE, 57-97-6, Dose [Inhibitor]: 0, 1130 MG/KG OF DIET FROM DAY 34 TO 54 OF AGE (STUDY DURATION: 200 D), Route [Inhibitor]: ORAL, Species: RAT, Strain/Sex: SPRAGUE-DAWLEY/FEMALE, Target Tissue: Type of Lesion: MAMMARY GLAND: ADENOCARCINOMA, Dose [Carcinogen]: 15 MG/RAT ONCE AT 55 D OF AGE", "value": "93%, 80%, 14%, not significant"},
      {"measurement": "tumour outcome (control, treated, inhibition, significance)", "setting": "Carcinogen: 7,12-DIMETHYLBENZ[A]ANTHRACENE, 57-97-6, Dose [Inhibitor]: 0, 1130 MG/KG OF DIET FROM DAY 34 TO 54 OF AGE (STUDY DURATION: 200 D), Route [Inhibitor]: ORAL, Species: RAT, Strain/Sex: SPRAGUE-DAWLEY/FEMALE, Target Tissue: Type of Lesion: MAMMARY GLAND: BENIGN TUMORS, Dose [Carcinogen]: 15 MG/RAT ONCE AT 55 D OF AGE", "value": "28%, 30%, -7%, not calculated"},
      {"measurement": "tumour outcome (control, treated, inhibition, significance)", "setting": "Carcinogen: 7,12-DIMETHYLBENZ[A]ANTHRACENE, 57-97-6, Dose [Inhibitor]: 0, 3390 MG/KG OF DIET FROM DAY 34 TO 54 OF AGE (STUDY DURATION: 200 D), Route [Inhibitor]: ORAL, Species: RAT, Strain/Sex: SPRAGUE-DAWLEY/FEMALE, Target Tissue: Type of Lesion: MAMMARY GLAND: ADENOCARCINOMA, Dose [Carcinogen]: 15 MG/RAT ONCE AT 55 D OF AGE", "value": "93%, 67%, 28%, p<0.05"},
      {"measurement": "tumour outcome (control, treated, inhibition, significance)", "setting": "Carcinogen: 7,12-DIMETHYLBENZ[A]ANTHRACENE, 57-97-6, Dose [Inhibitor]: 0, 3390 MG/KG OF DIET FROM DAY 34 TO 54 OF AGE (STUDY DURATION: 200 D), Route [Inhibitor]: ORAL, Species: RAT, Strain/Sex: SPRAGUE-DAWLEY/FEMALE, Target Tissue: Type of Lesion: MAMMARY GLAND: BENIGN TUMORS, Dose [Carcinogen]: 15 MG/RAT ONCE AT 55 D OF AGE", "value": "28%, 40%, -43%, not calculated"},
      {"measurement": "tumour outcome (control, treated, inhibition, significance)", "setting": "Carcinogen: 7,12-DIMETHYLBENZ[A]ANTHRACENE, 57-97-6, Dose [Inhibitor]: 140 UG (1.5 MG/KG BW) IN 0.4 ML MINERAL OIL 3/WK FOR 28 WK (STUDY DURATION: 28 WK), Route [Inhibitor]: ORAL, Species: HAMSTER, Strain/Sex: SYRIAN/MALE, Target Tissue: Type of Lesion: SKIN: CARCINOMA, Dose [Carcinogen]: 0.1% IN HEAVY MINERAL OIL APPLIED TO BUCCAL POUCH 3/WK FOR 28 WK", "value": "20/20 (100%), 2/20 (10%), 90%, not calculated"},
      {"measurement": "tumour outcome (control, treated, inhibition, significance)", "setting": "Carcinogen: 7,12-DIMETHYLBENZ[A]ANTHRACENE, 57-97-6, Dose [Inhibitor]: 250 MG/KG IN DIET FOR 6 WK PRIOR TO CARCINOGEN DOSE AND CONTINUING FOR 21-22 WK POST CARCINOGEN DOSE (STUDY DURATION: 28, Route [Inhibitor]: ORAL, Species: RAT, Strain/Sex: SPRAGUE-DAWLEY/MALE, Target Tissue: Type of Lesion: SALIVARY GLAND: TUMOR, Dose [Carcinogen]: 1 MG IN 20 µL OLIVE OIL INJECTED INTO SUBMANDIBULAR GLAND ONCE", "value": "20/28 (71%), 21/30 (70%), 1%, not significant"},
      {"measurement": "tumour outcome (control, treated, inhibition, significance)", "setting": "Carcinogen: BENZO[A]PYRENE, 50-32-8, Dose [Inhibitor]: 0, 4.7 MICROMOLAR/D IN 0.1 ML PEANUT OIL BEGINNING 2 WK PRIOR TO CARCINOGEN TREATMENT AND CONTINUING TO 2 WK POST CARCIN, Route [Inhibitor]: GAVAGE, Species: MOUSE, Strain/Sex: SWISS/FEMALE, Target Tissue: Type of Lesion: FORESTOMACH: TUMOR, Dose [Carcinogen]: 1 MG 2/WK IN 0.1 ML PEANUT OIL FOR 4 WK", "value": "20/20 (100%), 4/20 (20%), 80%, p<0.001"},
      {"measurement": "tumour outcome (control, treated, inhibition, significance)", "setting": "Carcinogen: N-BUTYL-N-(4-HYDROXYBUTYL)NITROSAMINE, 3817-11-6, Dose [Inhibitor]: 0, 0.1% IN DIET BEGINNING 5 WK PRIOR TO CARCINOGEN TREATMENT AND CONTINUING FOR DURATION OF STUDY (STUDY DURATION: 7 MO), Route [Inhibitor]: ORAL, Species: MOUSE, Strain/Sex: B6D2F1/MALE, Target Tissue: Type of Lesion: BLADDER: CARCINOMA IN SITU, Dose [Carcinogen]: 5 MG IN SALINE SOLUTION 2/WK FOR 9 WK", "value": "7/24 (29%), 5/24 (21%), 28%, not calculated"},
      {"measurement": "tumour outcome (control, treated, inhibition, significance)", "setting": "Carcinogen: N-BUTYL-N-(4-HYDROXYBUTYL)NITROSAMINE, 3817-11-6, Dose [Inhibitor]: 0, 0.1% IN DIET BEGINNING 5 WK PRIOR TO CARCINOGEN TREATMENT AND CONTINUING FOR DURATION OF STUDY (STUDY DURATION: 7 MO), Route [Inhibitor]: ORAL, Species: MOUSE, Strain/Sex: B6D2F1/MALE, Target Tissue: Type of Lesion: BLADDER: TRANSITIONAL CELL CARCINOMA, Dose [Carcinogen]: 5 MG IN SALINE SOLUTION 2/WK FOR 9 WK", "value": "8/24 (33%), 10/24 (42%), -27%, not calculated"},
      {"measurement": "tumour outcome (control, treated, inhibition, significance)", "setting": "Carcinogen: N-BUTYL-N-(4-HYDROXYBUTYL)NITROSAMINE, 3817-11-6, Dose [Inhibitor]: 0, 0.1% IN DIET BEGINNING 5 WK PRIOR TO CARCINOGEN TREATMENT AND CONTINUING FOR DURATION OF STUDY (STUDY DURATION: 7 MO), Route [Inhibitor]: ORAL, Species: MOUSE, Strain/Sex: B6D2F1/MALE, Target Tissue: Type of Lesion: BLADDER: TUMOR, Dose [Carcinogen]: 5 MG IN SALINE SOLUTION 2/WK FOR 9 WK", "value": "15/24 (63%), 15/24 (63%), 0%, not significant"},
      {"measurement": "tumour outcome (control, treated, inhibition, significance)", "setting": "Carcinogen: N-BUTYL-N-(4-HYDROXYBUTYL)NITROSAMINE, 3817-11-6, Dose [Inhibitor]: 0, 50 PPM IN DRINKING WATER FOR 2O WK BEGINNING 1 WK POST CARCINOGEN TREATMENT (STUDY DURATION: 41 WK), Route [Inhibitor]: ORAL, Species: MOUSE, Strain/Sex: ICR/MALE, Target Tissue: Type of Lesion: URINARY BLADDER: CARCINOMA, Dose [Carcinogen]: 250 PPM IN DRINKING WATER FOR 20 WK", "value": "15/36 (42%), 10/31 (33%), 21%, not significant"},
      {"measurement": "tumour outcome (control, treated, inhibition, significance)", "setting": "Carcinogen: N-BUTYL-N-(4-HYDROXYBUTYL)NITROSAMINE, 3817-11-6, Dose [Inhibitor]: 0, 50 PPM IN DRINKING WATER FOR 20 WK BEGINNING 1 WK POST CARCINOGEN TREATMENT (STUDY DURATION: 41 WK), Route [Inhibitor]: ORAL, Species: MOUSE, Strain/Sex: ICR/MALE, Target Tissue: Type of Lesion: URINARY BLADDER: PAPILLOMA, Dose [Carcinogen]: 250 PPM IN DRINKING WATER FOR 20 WK", "value": "2/36 (6%), 3/31 (10%), -67%, not significant"},
      {"measurement": "tumour outcome (control, treated, inhibition, significance)", "setting": "Carcinogen: N-METHYL-N-NITROSOUREA, 684-93-5, Dose [Inhibitor]: 0, 1130 MG/KG OF DIET BEGINNING 2 D POST CARCINOGEN DOSE AND CONTINUING FOR DURATION OF STUDY (STUDY DURATION: 90 D), Route [Inhibitor]: ORAL, Species: RAT, Strain/Sex: SPRAGUE-DAWLEY/FEMALE, Target Tissue: Type of Lesion: MAMMARY GLAND: ADENOCARCINOMA, Dose [Carcinogen]: 45 MG/KG BW ONCE AT 50 D OF AGE", "value": "100%, 100%, 0%, not significant"},
      {"measurement": "tumour outcome (control, treated, inhibition, significance)", "setting": "Carcinogen: N-METHYL-N-NITROSOUREA, 684-93-5, Dose [Inhibitor]: 0, 3390 MG/KG OF DIET BEGINNING 2 D POST CARCINOGEN DOSE AND CONTINUING FOR DURATION OF STUDY (STUDY DURATION: 90 D), Route [Inhibitor]: ORAL, Species: RAT, Strain/Sex: SPRAGUE-DAWLEY/FEMALE, Target Tissue: Type of Lesion: MAMMARY GLAND: ADENOCARCINOMA, Dose [Carcinogen]: 45 MG/KG BW ONCE AT 50 D OF AGE", "value": "100%, 90%, 10%, not calculated"}
    ]}
  ]
}
